Experimental data taken from the NIST ThermoML archive (doi:10.1016/j.tca.2017.12.013).
Numbers after ± are expanded uncertainties.

SMILES: [Ag+].[Ag+].[S-2] [silver sulfide]
- Triple point temperature (Crystal 2, DSC): 858 ± 1 K
- Triple point temperature (Crystal 2, Volume change): 865 ± 10 K
- Triple point temperature (Crystal 3, DSC): 451 ± 1 K
- Triple point temperature (Crystal 3, Volume change): 456 ± 5 K
